Measurements from a melting point compilation (Tetko et al.; mined from patent text by program, amines drawn as free bases though some values may be those of a salt).
Residues, ends and D or L forms follow the SMILES beside them. *: point of attachment. Cbz = O=C(OCc1ccccc1)*

Row | melting point | SMILES
1 | 208 to 213 °C | CC(C)(C)c1cc(NN=Cc2ccc(C(=O)O)cc2)cc(C(C)(C)C)c1
2 | 181 to 185 °C | N#Cc1c(N2CCc3ccccc3CC2)nc(CO)n(CC(F)(F)F)c1=O
3 | 152 to 156 °C | O=C(Nc1ccccc1O)c1ccc(CSc2ccc(O)cc2)cc1
4 | 140 to 142 °C | COC(=O)[C@H](NC(=O)OC(C)(C)C)c1ccc(O)cc1
5 | 190 °C | O=C(O)CSc1nccc(-n2cc(C3c4ccccc4C=Cc4ccccc43)c(=S)[nH]c2=O)n1
6 | 150 to 153 °C | COc1cc2cc(CO)c(CO)c(-c3ccnc(-n4c(=O)cc(C(=O)N5CCN(CCO)CC5)c5ccccc54)c3)c2cc1OC
7 | 180 to 181 °C | CCc1nc2c(N)nc3ccccc3c2n1CCCCNC(=O)Nc1ccccc1
8 | 127 to 129 °C | COc1ccc(C(=O)c2ccccc2F)c(O)c1Br
9 | 107 to 109 °C | COC(=O)c1sccc1Oc1ncc(OC)c(OC)n1
10 | 139 to 140 °C | CCNC(=O)C1CCCN1C(=O)C(C)NC(=O)C(C)NC(=O)OCc1ccccc1 (stereo not drawn) (Cbz-Ala-Ala-Pro-NHEt; configuration not given here)
11 | 242 to 244 °C | Cc1oc2ccccc2c1C(=O)NCc1ccc2c(Br)c(OCc3nnn[nH]3)ccc2c1
12 | 260 to 262 °C | CN1C(=O)CCc2cc(N3C[C@H](C(N)=O)OC3=O)cc(F)c21
13 | 209 to 211 °C | O=C(Nc1cc(OC2CCCC2)c(Cl)cc1F)C1=C(C(=O)NC2CCCCC2)CCCC1
14 | 274 to 276 °C | Nc1ncc2cc(-c3c(Cl)cccc3Cl)c(=O)n(Cc3c(Cl)cccc3Cl)c2n1
15 | 92 to 94 °C | C=CC(=O)OCCN(CCOC(=O)C=C)c1ccc(N=Nc2snc(C)c2C#N)c(NC(=O)C(C)C)c1
16 | 165 to 169 °C | O=C(OC1CCC1)N1CCC(c2nc3cc(-c4ccc(-n5cnnn5)cc4F)ccc3o2)CC1
17 | > 230 °C | O=C(O)Cn1c(=O)c(=O)[nH]c2cc([N+](=O)[O-])c(-n3ccc(CN4CCN(Cc5ccccc5)CC4)c3)cc21
18 | 169 to 172 °C | CS(=O)(=O)Nc1cccc2c(-c3ccccc3)c([N+](=O)[O-])oc12
19 | 147 to 149 °C | COc1cccc(-c2nn(Cc3ccccc3)c(N)c2C#N)c1
20 | 147 to 150 °C | Nc1ccc(-n2ncnc2-c2ccc(F)cc2)cc1
21 | 104 to 106 °C | CCOC(=O)CON(C)C(=S)Nc1ccc(Cl)cc1C
22 | 96 to 97 °C | CN(C(=O)OCc1ccccc1)c1ccc(OCC(=O)O)cc1
23 | 231 to 233 °C | CCOC(=O)C1=C(C)NC(C)=C(C(=O)OCC)C1c1ccc(-n2ccnc2)cc1

Row | melting point | SMILES
24 | 208 to 210 °C | O=C(O)COc1ccccc1-c1ccc(Cl)c(C(=O)NCC23CC4CC(CC(C4)C2)C3)c1
25 | 181 to 182 °C | CC1(C)OC(=O)Nc2ccc(-c3cccc(F)c3)cc21
26 | 245 to 246 °C | Cc1cc(C#N)cnc1Oc1c(Cl)cc(NC(=O)NC(=O)c2c(Cl)cccc2Cl)cc1Cl
27 | 64 to 69 °C | OC(CCl)(Cc1ccccc1Cl)c1ccc(Cl)cc1 (stereo not given)
28 | 149 to 152 °C | Cn1nc(N)c2c(-c3ccccc3)cc(N3CCOCC3)nc21
29 | 204 to 205 °C | Cc1cc(-c2nc3cccnn3c2-c2ccnc(NC(=O)NCCS(C)(=O)=O)c2)ccc1F
30 | 59 to 61 °C | C[C@@]1(F)[C@H](OC(=O)c2ccccc2)[C@@H](COC(=O)c2ccccc2)O[C@@H]1Br
31 | 190 to 200 °C | COC(=O)C1=C(C)NC(CC(=O)N2CCN(C3Cc4ccccc4C3)CC2)=C(C(=O)OC)C1c1c(Cl)cccc1Cl (stereo not given)
32 | 136 °C | Cc1c(Cl)ncc2ncc(-c3ccccc3)cc12
33 | 292 °C | NS(=O)(=O)c1ccc(-c2cn(-c3nc(-c4ccc(C(F)(F)F)cc4)cc(C(F)(F)F)n3)cn2)cc1
34 | 49 to 50 °C | Clc1ccc(-c2coc(CCCI)n2)cc1
35 | 67 to 70 °C | ClCOc1ccc(-c2ccccc2)cc1
36 | 313 °C | COc1cc2c(=O)n(CCCO)c3c4ccccc4[nH]c(=O)c3c2cc1OC
37 | 80 to 81 °C | CCC1(CC)C(=O)c2cc(OC)c(C)c(C)c2C1=O
38 | 197 to 199 °C | O=CC(=Cc1ccc(OC(=O)c2ccccc2F)cc1)C(C=O)=Cc1ccc(OC(=O)c2ccccc2F)cc1
39 | 98 to 100 °C | COc1ccc2c(c1)C(=O)N(C)CC(CCCl)O2 (stereo not given)
40 | 82 to 84.3 °C | CSc1ccc(F)cc1C(C)=O
41 | 82 °C | CCc1noc(=O)n1C(=O)NC
42 | 108 to 110 °C | COC(=O)CCn1cc(Cc2cccnc2)c2cc(CCC(=O)O)ccc21
43 | 125 to 126 °C | COc1cccc(CNCc2ccc3nc(N)c4ncn(CC(C)C)c4c3c2)c1
44 | 114 to 115 °C | CCOC(=O)C=Cc1ccc(OCCc2nc(-c3ccccc3)oc2C)cc1
45 | 216 to 217 °C | Cc1ccc(NC(=O)c2ccc3ncccc3c2)cc1NC(=O)c1cccc(OCCN2CCOCC2)c1
46 | 298 to 302 °C | O=C(Nc1ccc([N+](=O)[O-])cc1)c1ccc(Nc2ccncc2)cc1

Row | melting point | SMILES
47 | 124 to 125 °C | CCn1c(COC(=O)NC(=O)c2cc(Cl)cc(Cl)c2)nc(C(C)C)c1Sc1cc(Cl)cc(Cl)c1
48 | 124 to 125 °C | CN(C)CCCN1C(=O)Nc2ccccc2C1C1CCCCC1 (stereo not given)
49 | 205 to 207 °C | CC(C)(C)c1cc(N2Cc3ccccc3C2=O)cc(C(C)(C)C)c1O
50 | 178 to 180 °C | Cc1nc2c3c(ccn2c1C)[C@@H](OCC(F)(F)F)[C@H](O)[C@@H](c1ccccc1)N3
51 | 238 to 248 °C | O=C(NCCCCN1CCC(c2ccc3c(c2)OCO3)CC1)c1ccc(NC(=O)c2ccc(Cl)cc2)cc1
52 | 125 °C | COC(=O)C(CCc1ccc(C#N)cc1)C(N)=O (stereo not given)
53 | 150 to 151 °C | O=C(O)C1C=CCn2c(=O)n(CCCl)c(=O)n21 (stereo not given)
54 | 235 to 236 °C | N#Cc1cccc(Nc2nc(N)c(C(=O)c3ccccc3C#N)s2)c1
55 | 298 to 301 °C | N#Cc1ccc2nc(C(=O)NCc3cccc(NC(=O)CCc4nc[nH]n4)c3)[nH]c(=O)c2c1
56 | 152 °C | CCCCOc1c(CNC(=O)OC(C)(C)C)n(CC(C)C)c(=O)c2ccc(-c3noc(C)n3)cc12
57 | > 260 °C | N#Cc1cnc2sc(-c3ccc(C=O)cc3)cc2c1Nc1ccc2[nH]ccc2c1
58 | 8 to 9 °C | CC=CC(=O)C1C(C)CCCC1(C)C (stereo not given)
59 | 223 to 224 °C | CCn1ncc2c(NCC3CCCCC3)c3cc(O)ccc3nc21
60 | 31.6 °C | CCOC(=O)c1cc(Cl)nc(Cl)n1
61 | 139 to 142 °C | Cc1cc(Cl)cc(C(=O)C(=O)O)c1NC(=O)c1cc(Br)nn1-c1ncccc1Cl
62 | 87 to 88 °C | Cc1cnc(N2CCc3ccccc3CC2)c([N+](=O)[O-])c1
63 | 188 °C | O=C(Nc1n[nH]c2cc(Cl)ccc12)c1ccccc1
64 | 170 to 172 °C | COC1c2ccccc2C2C(=O)N(Cc3ccccc3)C(=O)C12 (stereo not given)
65 | 150 to 152 °C | CCC1=C(c2cccc(C(F)(F)F)c2)n2ncc(C#N)c2N(C(=O)CCl)C1
66 | 137 to 140 °C | COc1cc(OCCO)c([N+](=O)[O-])cc1[N+](=O)[O-]
67 | 151 to 153 °C | COc1ccc2sc(C(N)=O)c(SCc3ccccc3)c2c1
68 | 192 to 198 °C | COc1ccc(-c2cncn2-c2ccc(S(C)(=O)=O)cc2)c(Cl)n1
69 | 174 to 175 °C | O=C(Nc1c(C(O)(C(F)(F)F)C(F)(F)F)ccc2ccccc12)c1ccc(Cl)c(Cl)c1

Row | melting point | SMILES
70 | 172 to 173 °C | CCCCCOC(=O)c1cc(O)nn1-c1ncccc1Cl
71 | 180 to 182 °C | CC(=O)Nc1nc2c(s1)C(=O)C(Br)CC2 (stereo not given)
72 | 99 to 100 °C | CC(=C1SCCCS1)c1cccc(N)c1
73 | 56 to 57 °C | FC(F)Sc1ccc(-c2ccccc2)cc1
74 | 170 °C | CN(C)C=NC(=S)NC1CCN(C(=O)OC(C)(C)C)CC1
75 | 117 to 120 °C | CCCCCCCCCCCCC(Oc1ccc(NS(=O)(=O)CCCC)cc1)C(=O)Nc1c(C)cc(C)c(-c2n[nH]c3cc(C(C)(C)C)nn23)c1C (stereo not given)
76 | 145 to 147 °C | CC1CCN(C(=O)NCCc2ccc(S(=O)(=O)NC(=O)NC3CCC(C)C3)cc2)C(=O)C1 (stereo not given)
77 | 163 °C | CCCCc1ncc(/C=C(\Cc2cccs2)C(=O)O)n1Cc1ccc(C(=O)O)cc1[N+](=O)[O-]
78 | 184 to 185 °C | CCN(CCOC)C(=O)c1cc(-c2ccccc2)c(=O)n2c1-c1cc(Cl)ccc1CN2
79 | 109 to 110 °C | CC(C)C[C@@H](C=O)NC(=O)[C@H](Cc1c[nH]cn1)NC(=O)[C@H](Cc1c[nH]c2ccccc12)NC(=O)OCc1ccccc1
80 | 152 to 154 °C | CC(C)(C)OC(=O)Nc1ccc(C#Cc2ccc(OC(F)(F)F)cc2)cc1NC(=O)CC(=O)c1cccc(C#N)c1
81 | 128 °C | CNC(Cc1ccccc1)c1nc(C(=O)NCc2ccccc2)no1 (stereo not given)
82 | 137 to 138 °C | CCN(CC)CCNC(=O)N1CCCC(S(=O)(=O)c2ccc(F)cc2)C1 (stereo not given)
83 | 200 °C | CCc1nc2cc(C(F)(F)F)c(Cl)cc2n1-c1ccc(C[C@H](C)OC(=O)NS(=O)(=O)c2ccc(C)cc2)cc1
84 | 112 to 115 °C | Cc1ccc2nc(Cl)c(Cl)nc2c1
85 | 121 to 124 °C | CC(C)c1ccc2ncn(/C=C/C(=O)NCCNCc3cccnc3)c(=O)c2c1
86 | 187 to 188 °C | CCOC(=O)C1=Cc2cc(Cl)cc(C=NO)c2OC1C(F)(F)F (stereo not given)
87 | 181 °C | CCOC(=O)c1c(N2CCNCC2)c2cc(C)ccc2n(-c2ccccc2)c1=O
88 | 283 to 286 °C | CCc1n[nH]c2c(=O)[nH]c(-c3cc(S(C)(=O)=O)ccc3OCc3ccccn3)nc12
89 | > 300 °C | COc1cccc(OC)c1-c1cc2cnc(N)nc2nc1N
90 | 221 to 223 °C | COc1cc([C@@H]2c3cc4c(cc3C(=O)C[C@H]2C(=O)O)OCO4)cc(OC)c1OC (relative stereo)

Row | SMILES | melting point
91 | O=C(CCNC(=O)[C@H](Cc1ccc(-c2ccccc2)cc1)NCP(=O)(Oc1ccccc1)Oc1ccccc1)OCc1ccccc1 | 83 to 84 °C
92 | O=C1CC(c2cccs2)CN1 (stereo not given) | 75 to 76.5 °C
93 | CC(C)(C)C(NC(=O)c1ccc(Cl)cc1)NC(=N[N+](=O)[O-])Nc1cccnc1 (stereo not given) | 203 to 204 °C
94 | Cc1cccc(NC(=O)c2cc([N+](=O)[O-])ccc2NC(=O)CF)c1C | 236 to 239 °C
95 | COC(=O)/C=C/[C@H]1[C@@H](C(=O)OCc2cnc(Oc3ccccc3)s2)C1(C)C | 62 °C
